Reference: US8569264B2, “Antibacterial 4,5-substituted aminoglycoside analogs having multiple substituents” (ISIS Pharmaceuticals, Inc., priority 2005, dated 2013)
Like-named read-outs stand apart in the source and are kept apart here. Marks after values point to notes of the source that are not given here. Each block holds one molecule with its values, some of them ahead of it.

Assays:
S. aureus ATCC 13709 = assay: MIC, S. aureus ATCC 13709; assay type: cell-based; conditions: Example 110
Description: (§1) The MIC assays are carried out in 150 μL volume in duplicate in 96-well clear flat-bottom plates. The bacterial suspension from an overnight culture growth in appropriate medium is added to a solution of test compound in 4% DMSO in water. Final bacterial inoculum is approximately 10^5-10^6 CFU/well. […] Both ampicillin and tetracycline are used as antibiotic-positive controls in each screening assay for S. pyogenes, E. coli imp-, E. coli, S. aureus, E. faecalis, K. pneumoniae and P. vulgaris. Ciprofloxacin is used as an antibiotic positive control in each screening assay for P. aeruginosa.
(§2) The following compounds were prepared using methods illustrated in the previous examples. The compounds were also examined in standard bacterial assays against E. Coli, S. Aureus, P. aurginosa, K. pneumoniae, P. vulgaris, and A. baumannii to determine activities. Each of the bacterial cultures that are available from ATCC (www.atcc.org) is identified by its ATCC number. A. baumannii is gentamicin sensitive Acinetobacter baumannii #2 from Walter Reed.

[1] = test system: gentamicin sensitive Acinetobacter baumannii #2 from Walter Reed; assay: MIC, A. baumannii WReed 2; assay type: cell-based; conditions: Example 110
Description: as §1, §2

E. coli ATCC 25922 = assay: MIC, E. coli ATCC 25922; assay type: cell-based; conditions: Example 110
Description: as §1, §2

P. vulgaris ATCC 8427 = assay: MIC, P. vulgaris ATCC 8427; assay type: cell-based; conditions: Example 110
Description: as §1, §2

K. pneumoniae ATCC 10031 = assay: MIC, K. pneumoniae ATCC 10031; assay type: cell-based; conditions: Example 110
Description: as §1, §2

P. aurginosa ATCC 25416 = assay: MIC, P. aurginosa ATCC 25416; assay type: cell-based; conditions: Example 110
Description: as §1, §2

P. aurginosa ATCC 29248 = assay: MIC, P. aurginosa ATCC 29248; assay type: cell-based; conditions: Example 110
Description: as §1, §2

[2] = test system: Staphylococcus aureus (Smith Strain ATCC 13709); assay: Staphylococcus aureus mouse protection assay; assay type: in vivo, mice; conditions: for # Dead mice/Total mice in group: Staph Conc. 10^6, 10% Mucin
Description: Two of the novel aminoglycoside compounds of the invention were examined for their anitbacterial activity against staphylococcus aureus. Mice were fed with autoclaved commercial food pellets and sterile water ad libitum. Animals were inoculated intraperitoneally with 0.5 mL/mouse of the indicated concentration of S. aureus (ATCC 13709) containing 10% mucin. There were 10 mice in each treatment group and compounds were administered subcutaneously one and 3 hour after infection. Compounds 15a (R4═R5═CH3) and 15j (R4═H, R5═(CH2)2C6H5)) were used at 75 mg/kg, 37.5 mg/kg, 18.8 mg/kg, 9.4 mg/kg, 4.7 mg/kg, 2.3 mg/kg, 1.17 mg/kg and 0.5 mg/kg. Amakacin, paromomycin and neomycin were used as the positive controls at concentrations of 2 mg/kg, 1 mg/kg and 0.5 mg/kg.
Test compound was administered as an aqueous buffer solution (phosphate buffered saline (PBS), pH=7.4).

[3] = test system: E. coli S30 bacterial extract (pBestLuc firefly luciferase reporter); assay: Coupled bacterial transcription/translation assay; assay type: biochemical; conditions: read-out: Trans/Trans IC50
In short: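 Coupled transcription/translation of firefly luciferase from 1 μg pBestLuc (tac promoter) in E. coli S30 extract, with or without test compound. Reaction 35 min at 37° C., then functional luciferase detected by luminescence.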

E. Coli = assay: MIC, E. Coli; assay type: cell-based
In short: (§3)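 Broth microdilution in duplicate, 150 μL: overnight-culture bacteria were added to compound in 4% DMSO in water. Final inoculum was about 10^5–10^6 CFU/well.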

[4] = biological target: 16S ribosomal subunit RNA target; assay: Mass spectrometry based binding assay (FTICR), 16S
In short: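 Binding to the 16S ribosomal subunit RNA target was measured by FTICR mass spectrometry. Ligands or ligand mixtures were prepared at several concentrations in 10 μL of aqueous 100 mM ammonium acetate buffer with 33% isopropyl alcohol. Samples were infused at 1 μL/min into a negative-mode electrospray source, and ions were held 1 sec in an RF-only hexapole. Complex/free RNA ratios versus ligand concentration were fitted to a binding polynomial to obtain KD.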

S. Aureus = assay: MIC, S. Aureus; assay type: cell-based
In short: as §3

[5] = biological target: 18S ribosomal subunit RNA target; assay: Mass spectrometry based binding assay (FTICR), 18S
In short: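 Ligands at varying concentrations were mixed with 2.5 or 5 μM RNA in 100 mM ammonium acetate with 33% isopropyl alcohol, then analysed by negative-mode ESI-FTICR. Complex/free RNA ion ratios plotted against ligand concentration were fitted to a second- or higher-order binding polynomial to give KD.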

MIC S. aureus ATCC 13709 (S. aureus ATCC 13709): 10 to 20 µM | MIC A. baumannii WReed 2 [1]: 20 to 40 µM | MIC E. coli ATCC 25922 (E. coli ATCC 25922): >40 µM | MIC P. vulgaris ATCC 8427 (P. vulgaris ATCC 8427): 20 to 40 µM | MIC K. pneumoniae ATCC 10031 (K. pneumoniae ATCC 10031): 5 to 10 µM | MIC P. aurginosa ATCC 25416 (P. aurginosa ATCC 25416): 5 to 10 µM | MIC P. aurginosa ATCC 29248 (P. aurginosa ATCC 29248): >40 µM
SMILES: NCC1OC(OC2C(CO)OC(OC3C(O)C(N)CC(N)C3OC3OC(CO)C(O)C(O)C3N)C2OCCNCCN2C(=O)c3cccc4cccc(c34)C2=O)C(N)C(O)C1O (centres unmarked) [Compound 9ae]

SMILES: NCC1OC(OC2C(CO)OC(OC3C(O)C(N)CC(N)C3OC3OC(CO)C(O)C(O)C3N)C2OCCN(CCCc2ccccc2)CCc2ccccc2)C(N)C(O)C1O (centres unmarked) [Compound 9ag]
MIC S. aureus ATCC 13709 (S. aureus ATCC 13709): 0.6 to 1.2 µM | MIC A. baumannii WReed 2 [1]: 10 to 20 µM | MIC E. coli ATCC 25922 (E. coli ATCC 25922): 10 to 20 µM | MIC P. vulgaris ATCC 8427 (P. vulgaris ATCC 8427): 10 to 20 µM | MIC K. pneumoniae ATCC 10031 (K. pneumoniae ATCC 10031): 2.5 to 5 µM | MIC P. aurginosa ATCC 25416 (P. aurginosa ATCC 25416): 10 to 20 µM | MIC P. aurginosa ATCC 29248 (P. aurginosa ATCC 29248): >40 µM

MIC S. aureus ATCC 13709 (S. aureus ATCC 13709): <0.6 µM | MIC A. baumannii WReed 2 [1]: 2.5-5^ uM | MIC E. coli ATCC 25922 (E. coli ATCC 25922): 5 to 10 µM | MIC P. vulgaris ATCC 8427 (P. vulgaris ATCC 8427): 5 to 10 µM | MIC K. pneumoniae ATCC 10031 (K. pneumoniae ATCC 10031): 1.3 to 2.5 µM | MIC P. aurginosa ATCC 25416 (P. aurginosa ATCC 25416): >40 µM | MIC P. aurginosa ATCC 29248 (P. aurginosa ATCC 29248): >40 µM
SMILES: COc1ccc(CCNCCOC2C(OC3C(O)C(N)CC(N)C3OC3OC(CO)C(O)C(O)C3N)OC(CO)C2OC2OC(CN)C(O)C(O)C2N)cc1 (centres unmarked) [Compound 9aj]

SMILES: NCC1OC(OC2C(CO)OC(OC3C(O)C(N)CC(N)C3OC3OC(CO)C(O)C(O)C3N)C2OCCNCc2cccnc2)C(N)C(O)C1O (centres unmarked) [Compound 9b]
# Dead mice/Total mice in group ([2]; 0.1 mg/kg in PBS pH=7.4, the 14th table): 7/10 (10% Mucin) | # Dead mice/Total mice in group ([2]; 0.5 mg/kg in PBS pH=7.4, the 14th table): 3/10 (10% Mucin) | # Dead mice/Total mice in group ([2]; 1 mg/kg in PBS pH=7.4, the 14th table): 0/10 (10% Mucin) | # Dead mice/Total mice in group ([2]; 2 mg/kg in PBS pH=7.4, the 14th table): 0/10 (10% Mucin) | # Dead mice/Total mice in group ([2]; 4.5 mg/kg in PBS pH=7.4, the 14th table): 0/10 (10% Mucin) | # Dead mice/Total mice in group ([2]; 9 mg/kg in PBS pH=7.4, the 14th table): 0/10 (10% Mucin) | # Dead mice/Total mice in group ([2]; 18 mg/kg in PBS pH=7.4, the 14th table): 0/10 (10% Mucin) | # Dead mice/Total mice in group ([2]; 37 mg/kg in PBS pH=7.4, the 14th table): 0/10 (10% Mucin) | # Dead mice/Total mice in group ([2]; 75 mg/kg in PBS pH=7.4, the 14th table): 0/10 (10% Mucin) | # Dead mice/Total mice in group ([2]; […] in PBS pH=7.4, the 14th table): 6/10 (10% Mucin) | prevention of lethal bacterial infections in mice ([2]; result in words, summary of the 14th table): effective at preventing lethal bacterial infections in mice | IC50 ([3]; Example 105): 100 nM | MIC E. Coli. (E. Coli; Example 105): 6-12^b uM | Kd ([4]; FTICR mass spectrometry, run at 100 nM RNA, Example 105): 900 nM | MIC S. Aureus (S. Aureus; Example 105): 0.6-1^ uM | Kd ([5]; FTICR mass spectrometry, Example 105): 9400 nM

SMILES: CN(C)CC1OC(OC2C(N)CC(N)C(O)C2OC2OC(CO)C(OC3OC(CN)C(O)C(O)C3N)C2O)C(N)C(O)C1O (centres unmarked) [Compound 15a]
# Dead mice/Total mice in group ([2]; 0.5 mg/kg subcutaneously, the 13th table): 8/10 | # Dead mice/Total mice in group ([2]; 1 mg/kg subcutaneously, the 13th table): 7/10 | # Dead mice/Total mice in group ([2]; 2 mg/kg subcutaneously, the 13th table): 7/10 | # Dead mice/Total mice in group ([2]; 4.5 mg/kg subcutaneously, the 13th table): 1/10 | # Dead mice/Total mice in group ([2]; 9 mg/kg subcutaneously, the 13th table): 0/10 | # Dead mice/Total mice in group ([2]; 18 mg/kg subcutaneously, the 13th table): 0/10 | # Dead mice/Total mice in group ([2]; 37 mg/kg subcutaneously, the 13th table): 0/10 | # Dead mice/Total mice in group ([2]; 75 mg/kg subcutaneously one and 3 hour after infection, intraperitoneal, the 13th table): 0/10 | IC50 ([3]; Example 108): 300 nM | MIC E. Coli. (E. Coli; Example 108): 3 to 6 µM | Kd ([4]; Example 108): 600 nM | MIC S. Aureus (S. Aureus; Example 108): 2 to 3 µM | Kd ([5]; Example 108): 700 nM
